Experiments:
ALOMY = test: Pre-emergence herbicidal action; assay type: in vivo, Alopecurus myosuroides; conditions: 80 g/ha, scored after 3 weeks
Summary of the method: (§1)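 Application was to the soil surface over freshly covered seeds, using wettable-powder or emulsion-concentrate formulations diluted in water at 600 to 800 l/ha with 0.2% wetting agent. Percent activity was judged by eye after 3 weeks versus untreated controls.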

AMARE [1] = test: Pre-emergence herbicidal action; assay type: in vivo, Amaranthus retroflexus; conditions: scored after 3 weeks
Summary of the method: (§2)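 Weed and crop seeds were sown in sandy loam, and WP or EC formulations were sprayed onto the covering soil at 600 to 800 l/ha water with 0.2% wetting agent. After 3 weeks in a greenhouse, damage was scored visually against untreated controls as percent activity (100% = plants dead).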

AVEFA = test: Pre-emergence herbicidal action; assay type: in vivo, Avena fatua; conditions: 80 g/ha, scored after 3 weeks
Summary of the method: as §1

DIGSA [2] = test: Pre-emergence herbicidal action; assay type: in vivo, Digitaria sanguinalis; conditions: scored after 3 weeks
Description: (§3) Seeds of monocotyledonous and dicotyledonous weed plants and crop plants are laid out in sandy loam soil in wood-fibre pots and covered with soil. The compounds of the invention, formulated in the form of wettable powders (WP) or as emulsion concentrates (EC), are then applied to the surface of the covering soil in the form of an aqueous suspension or emulsion at a water application rate equivalent to 600 to 800 l/ha, with addition of 0.2% wetting agent. After the treatment, the pots are placed in a greenhouse and kept under good growth conditions for the trial plants. The damage to the test plants is scored visually after a test period of 3 weeks by comparison with untreated controls (herbicidal activity in percent (%): 100% activity=the plants have died, 0% activity=like control plants). […] The tables below illustrate, in an illustrative manner, the post-emergence herbicidal action of the compounds of the invention, the herbicidal activity being stated in percent.

ECHCG [3] = test: Pre-emergence herbicidal action; assay type: in vivo, Echinochloa crus-galli; conditions: scored after 3 weeks
Summary of the method: as §2

MATIN = test: Pre-emergence herbicidal action; assay type: in vivo, Matricaria inodora; conditions: scored after 3 weeks
Summary of the method: as §1

SETVI [4] = test: Pre-emergence herbicidal action; assay type: in vivo, Setaria viridis; conditions: scored after 3 weeks
Summary of the method: as §1

VERPE [5] = test: Pre-emergence herbicidal action; assay type: in vivo, Veronica persica; conditions: scored after 3 weeks
Summary of the method: as §1

VIOTR [6] = test: Pre-emergence herbicidal action; assay type: in vivo, Viola tricolor; conditions: scored after 3 weeks
Summary of the method: as §2

ZEAMX = test: Pre-emergence damage to crop plants; assay type: in vivo, Zea mays; conditions: 80 g a.i./ha, comparative experiment
Summary of the method: as §1

BRSNW = test: Pre-emergence damage to crop plants; assay type: in vivo, Brassica napus; conditions: 20 g a.i./ha, comparative experiment
Description: as §3, with “percent. In the experiments that follow, the herbicidal action of the compounds of the invention and that of the corresponding known racemic compounds closest from WO2012126932 and WO2018202535 were compared under the above-specified conditions by the pre-emergence and post-emergence method. The example numbers given in the tables relate to the compounds disclosed in the respective documents.” for “percent.”

AMARE [7] = test: Post-emergence herbicidal action; assay type: in vivo, Amaranthus retroflexus; conditions: assessed after about 3 weeks
Summary of the method: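 Greenhouse plants in sandy loam treated at the one-leaf stage, 2–3 weeks after sowing, by spraying WP or EC formulations as aqueous suspension/emulsion at 600–800 l/ha with 0.2% wetting agent. Visual assessment after about 3 weeks versus untreated controls, as percent action (100% = plants dead, 0% = like control).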

DIGSA [8] = test: Post-emergence herbicidal action; assay type: in vivo, Digitaria sanguinalis; conditions: assessed after about 3 weeks
Procedure: (§4) Seeds of monocotyledonous and dicotyledonous weed and crop plants are laid out in sandy loam soil in wood-fibre pots, covered with soil and cultivated in a greenhouse under good growth conditions. 2 to 3 weeks after sowing, the test plants are treated at the one-leaf stage. The compounds of the invention, formulated in the form of wettable powders (WP) or as emulsion concentrates (EC), are then sprayed onto the green parts of the plants in the form of an aqueous suspension or emulsion at a water application rate equating to 600 to 800 l/ha, with addition of 0.2% wetting agent. After the test plants have been left to stand in the greenhouse under optimal growth conditions for about 3 weeks, the action of the preparations is assessed visually in comparison to untreated controls (herbicidal action in percent (%): 100% activity=the plants have died, 0% activity=like control plants). […] The tables below illustrate, in an illustrative manner, the post-emergence herbicidal action of the compounds of the invention, the herbicidal activity being stated in percent. In the experiments that follow, the herbicidal action of the compounds of the invention and that of the corresponding known racemic compounds closest from WO2012126932 and WO2018202535 were compared under the above-specified conditions by the pre-emergence and post-emergence method. The example numbers given in the tables relate to the compounds disclosed in the respective documents.

ECHCG [9] = test: Post-emergence herbicidal action; assay type: in vivo, Echinochloa crus-galli
Summary of the method: (§5)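 Plants grown from seed in sandy loam in the greenhouse were sprayed at the one-leaf stage, 2 to 3 weeks after sowing, with WP or EC formulations as aqueous suspension or emulsion at 600 to 800 l/ha plus 0.2% wetting agent. Damage was scored visually after about 3 weeks versus untreated controls (0% = like control, 100% = plants dead).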

PHBPU = test: Post-emergence herbicidal action; assay type: in vivo, Pharbitis purpurea; conditions: 20 g/ha, assessed after about 3 weeks
Procedure: as §4, with “percent.” for “percent. In the experiments that follow, the herbicidal action of the compounds of the invention and that of the corresponding known racemic compounds closest from WO2012126932 and WO2018202535 were compared under the above-specified conditions by the pre-emergence and post-emergence method. The example numbers given in the tables relate to the compounds disclosed in the respective documents.”

SETVI [10] = test: Post-emergence herbicidal action; assay type: in vivo, Setaria viridis; conditions: for Post-emergence action against SETVI: assessed after about 3 weeks
Summary of the method: as §5

VERPE [11] = test: Post-emergence herbicidal action; assay type: in vivo, Veronica persica; conditions: assessed after about 3 weeks
Summary of the method: as §5

VIOTR [12] = test: Post-emergence herbicidal action; assay type: in vivo, Viola tricolor; conditions: for Herbicidal action against VIOTR: comparative experiment; for Post-emergence action against VIOTR: assessed after about 3 weeks
Procedure: as §4

TRZAS = test: Post-emergence damage to crop plants; assay type: in vivo, Triticum aestiva; conditions: 5 g a.i./ha, comparative experiment
Summary of the method: as §5

GLXMA = test: Post-emergence damage to crop plants; assay type: in vivo, Glycine max; conditions: 5 g a.i./ha, comparative experiment
Procedure: as §4, with “The example numbers given in the tables relate to the compounds disclosed in the respective documents.” left out

Cc1nnc(NC(=O)c2ccc(C(F)F)c([S+](C)[O-])c2Cl)o1 (stereo in doubt) [Example I-6, 2-chloro-N-(5-methyl-1,3,4-oxadiazol-2-yl)-3-[(S)-methylsulfinyl]-4-(difluoromethyl)benzamide]
100%: Pre-emergence action against ALOMY (ALOMY) | Pre-emergence action against AMARE (AMARE [1]; 80 g/ha) | Pre-emergence action against AVEFA (AVEFA) | Pre-emergence action against DIGSA (DIGSA [2]; 20 g/ha) | Pre-emergence action against DIGSA (DIGSA [2]; 80 g/ha) | Pre-emergence action against ECHCG (ECHCG [3]; 80 g/ha) | Pre-emergence action against SETVI (SETVI [4]; 80 g/ha) | Pre-emergence action against VERPE (VERPE [5]; 80 g/ha) | Pre-emergence action against VIOTR (VIOTR [6]; 20 g/ha) | Pre-emergence action against VIOTR (VIOTR [6]; 80 g/ha) | Post-emergence action against AMARE (AMARE [7]; 20 g/ha) | Herbicidal action against ECHCG (ECHCG [9]; 20 g a.i./ha, comparative experiment) | Post-emergence action against ECHCG (ECHCG [9]; 20 g/ha, assessed after about 3 weeks) | Herbicidal action against SETVI (SETVI [10]; 5 g a.i./ha, comparative experiment) | Post-emergence action against SETVI (SETVI [10]; 5 g/ha) | Post-emergence action against SETVI (SETVI [10]; 20 g/ha) | Herbicidal action against VIOTR (VIOTR [12]; 20 g a.i./ha) | Post-emergence action against VIOTR (VIOTR [12]; 20 g/ha)
90%: Pre-emergence action against AMARE (AMARE [1]; 20 g/ha) | Pre-emergence action against ECHCG (ECHCG [3]; 20 g/ha) | Pre-emergence action against MATIN (MATIN; 20 g/ha) | Pre-emergence action against MATIN (MATIN; 80 g/ha) | Pre-emergence action against SETVI (SETVI [4]; 20 g/ha) | Pre-emergence action against VERPE (VERPE [5]; 20 g/ha) | Post-emergence action against AMARE (AMARE [7]; 5 g/ha) | Post-emergence action against DIGSA (DIGSA [8]; 5 g/ha) | Post-emergence action against DIGSA (DIGSA [8]; 20 g/ha) | Post-emergence action against PHBPU (PHBPU) | Post-emergence action against VERPE (VERPE [11]; 5 g/ha) | Post-emergence action against VERPE (VERPE [11]; 20 g/ha)
40%: Damage to BRSNW (BRSNW) | Damage to GLXMA (GLXMA)
20%: Damage to ZEAMX (ZEAMX) | Damage to TRZAS (TRZAS)
80%: Herbicidal action against VIOTR (VIOTR [12]; 5 g a.i./ha) | Post-emergence action against VIOTR (VIOTR [12]; 5 g/ha)

Source: patent US20240174624A1, “CHIRAL N-(1,3,4-OXADIAZOLE-2-YL)PHENYL CARBOXYLIC ACID AMIDES AND THEIR USE AS HERBICIDES” (Bayer Aktiengesellschaft, priority 2021, published 2024)
